For one data set, the system named is HEK293 cells. Put plainly: Cell viability / cytotoxicity assay. Format: cell-based, human. The conditions noted are these: CellTiter-Glo, 18 h. For orientation: ATP-based viability assays read luminescence as a measure of living cells.
Another data set deals with T1, ARα2B (Homo sapiens, UniProt P18089).
T1 sequence (P18089 1-450): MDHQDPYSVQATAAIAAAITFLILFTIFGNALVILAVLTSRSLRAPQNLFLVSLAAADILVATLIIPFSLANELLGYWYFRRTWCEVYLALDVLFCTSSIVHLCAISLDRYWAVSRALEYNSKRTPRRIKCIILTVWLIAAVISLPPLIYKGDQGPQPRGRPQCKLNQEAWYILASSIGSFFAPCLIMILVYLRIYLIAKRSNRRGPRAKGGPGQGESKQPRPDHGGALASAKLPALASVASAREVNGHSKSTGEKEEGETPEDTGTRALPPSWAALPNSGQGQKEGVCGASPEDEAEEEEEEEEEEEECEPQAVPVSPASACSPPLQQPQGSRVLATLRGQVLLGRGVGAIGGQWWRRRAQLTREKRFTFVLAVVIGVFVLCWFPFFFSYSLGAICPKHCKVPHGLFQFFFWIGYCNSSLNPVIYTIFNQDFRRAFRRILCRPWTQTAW
Put plainly: ARα2B radioligand. It counts as binding. The conditions noted are these: for inhibition at 10 µM: read-out: ARα2B binding (% inhibition at 10 μM).

The target of a further data set is T2, ARα2A (Homo sapiens, UniProt P08913).
T2 sequence (P08913 1-465): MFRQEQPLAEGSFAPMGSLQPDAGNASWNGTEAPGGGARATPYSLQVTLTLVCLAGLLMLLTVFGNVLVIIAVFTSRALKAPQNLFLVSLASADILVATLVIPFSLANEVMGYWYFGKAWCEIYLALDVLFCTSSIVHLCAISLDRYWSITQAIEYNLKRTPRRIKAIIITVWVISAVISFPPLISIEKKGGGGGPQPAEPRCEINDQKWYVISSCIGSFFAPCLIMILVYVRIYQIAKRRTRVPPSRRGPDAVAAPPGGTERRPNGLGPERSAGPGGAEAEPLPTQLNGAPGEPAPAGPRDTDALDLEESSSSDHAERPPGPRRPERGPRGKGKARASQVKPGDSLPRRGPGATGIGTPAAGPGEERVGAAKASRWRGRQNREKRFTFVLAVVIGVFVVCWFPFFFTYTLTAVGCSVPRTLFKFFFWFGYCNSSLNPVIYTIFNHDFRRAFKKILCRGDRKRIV
Kind of data set: ARα2A radioligand. It counts as binding. The conditions noted are these: ARα2A binding Ki, competition with 3H-Rauwolscinein; concentration response.

Another data set has as its target T3, ARα2C (Homo sapiens, UniProt P18825).
T3 sequence (P18825 1-462): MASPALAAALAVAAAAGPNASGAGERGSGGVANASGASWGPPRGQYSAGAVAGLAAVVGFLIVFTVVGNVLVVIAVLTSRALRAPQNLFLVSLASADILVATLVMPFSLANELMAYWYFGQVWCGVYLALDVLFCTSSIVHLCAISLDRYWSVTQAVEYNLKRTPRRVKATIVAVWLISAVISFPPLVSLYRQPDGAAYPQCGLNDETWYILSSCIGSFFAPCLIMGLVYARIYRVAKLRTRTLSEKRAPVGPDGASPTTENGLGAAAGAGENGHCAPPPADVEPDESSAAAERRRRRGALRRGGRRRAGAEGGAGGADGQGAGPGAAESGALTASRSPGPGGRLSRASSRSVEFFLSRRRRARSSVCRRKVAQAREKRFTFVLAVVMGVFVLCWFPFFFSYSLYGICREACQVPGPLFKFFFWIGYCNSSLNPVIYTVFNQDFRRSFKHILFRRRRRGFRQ
Put plainly: ARα2C radioligand. It counts as binding.

A short description of data set [1]: Aqueous solubility, shake flask method. Particulars: pH 7.4, PBS, 24 h. Format: physicochemical.

A word on the inhibition: it is the relative decrease from the control value, in per cent. A word on the Ki: it is a measure of affinity in units of concentration, obtained from inhibition or displacement. In general, Aqueous solubility refers to how much of the substance goes into solution per volume.

Turning to `C[C@H]1N=C(c2ccccc2F)c2cc(Br)ccc2NC1=O` [Compound 1, (3R)-7-Bromo-5-(2-fluorophenyl)-3-methyl-1,3-dihydro-2H-1,4-benzodiazepin-2-one], the “Cytotoxicity LD50” value in the data set with HEK293 cells is over 300 µM. Also, at ARα2B, the inhibition at 10 µM was -6%.
On to `Cc1ccc(Nc2ccc3c(c2)C(c2ccccc2F)=NC(C)C(=O)N3)cc1` (stereo not shown) [Compound 3, 5-(2-Fluorophenyl)-3-methyl-7-(4-methylanilino)-1,3-dihydro-2H-1,4-benzodiazepin-2-one], for which the Ki on ARα2A was 2280 nM; at ARα2B, 4.64 µM; at ARα2C it was 2160 nM. Moreover, in the data set on HEK293 cells, the “Cytotoxicity LD50” value amounted to 62 ± 15 µM. The inhibition at 10 µM at ARα2B came to 61%.
Turning to `COc1ccc(Nc2ccc3c(c2)C(c2ccccc2F)=NC(C)C(=O)N3)cc1` (stereo not shown) [Compound 4, 5-(2-Fluorophenyl)-7-(4-methoxyanilino)-3-methyl-1,3-dihydro-2H-1,4-benzodiazepin-2-one], the values for the Ki at ARα2A and on ARα2C were 2070 nM and 2080 nM, respectively. Also, the “Cytotoxicity LD50” value in the data set on HEK293 cells stood at 87 ± 32 µM. Further, the inhibition at 10 µM on ARα2B was 41%.
Regarding `CC1N=C(c2ccccc2F)c2cc(Nc3ccc(Cl)cc3)ccc2NC1=O` (stereo not shown) [Compound 5, 7-(4-Chloroanilino)-5-(2-fluorophenyl)-3-methyl-1,3-dihydro-2H-1,4-benzodiazepin-2-one], the Ki on ARα2A worked out at 2080 nM; on ARα2B, 1.41 µM; at ARα2C, 1640 nM. The “Cytotoxicity LD50” value in the data set on HEK293 cells came out at 87 ± 36 µM. In addition, at ARα2B, the inhibition at 10 µM turned out to be 81%.
As for `CC1N=C(c2ccccc2F)c2cc(Nc3ccc([N+](=O)[O-])cc3)ccc2NC1=O` (stereo not shown) [Compound 6, 5-(2-Fluorophenyl)-3-methyl-7-(4-nitroanilino)-1,3-dihydro-2H-1,4-benzodiazepin-2-one], at ARα2A, the affinity, expressed as Ki, was 2620 nM. The “Cytotoxicity LD50” value with HEK293 cells is 61 ± 10 µM. Moreover, at ARα2B, the inhibition at 10 µM was 36%.
Consider `CSc1ccc(Nc2ccc3c(c2)C(c2ccccc2F)=NC(C)C(=O)N3)cc1` (stereo not shown) [Compound 7, 5-(2-Fluorophenyl)-3-methyl-7-((4-(methylthio)phenyl)amino)-1,3-dihydro-2H-1,4-benzodiazepin-2-one], for which the figures for the Ki on ARα2A and on ARα2C were 3300 nM and 2410 nM, respectively. Also, in the data set with HEK293 cells, the “Cytotoxicity LD50” value is 63 ± 12 µM. For the same compound, the inhibition at 10 µM at ARα2B amounted to 41%.
On to `CC1N=C(c2ccccc2F)c2cc(Nc3ccc(S(C)(=O)=O)cc3)ccc2NC1=O` (stereo not shown) [Compound 8, 5-(2-Fluorophenyl)-7-(4-methanesulfonylanilino)-3-methyl-1,3-dihydro-2H-1,4-benzodiazepin-2-one], for which the “Cytotoxicity LD50” value in the data set with HEK293 cells was over 150 µM. The inhibition at 10 µM on ARα2B was -5%.
For `CC1N=C(c2ccccc2F)c2cc(Nc3ccc(C#N)cc3)ccc2NC1=O` (stereo not shown) [Compound 9, 7-(4-Cyanoanilino)-5-(2-fluorophenyl)-3-methyl-1,3-dihydro-2H-1,4-benzodiazepin-2-one], the “Cytotoxicity LD50” value with HEK293 cells was determined as 83 ± 29 µM. Further, the inhibition at 10 µM on ARα2B came to 23%.
With `CC1N=C(c2ccccc2F)c2cc(Nc3ccc(O)cc3)ccc2NC1=O` (stereo not shown) [Compound 10, 5-(2-Fluorophenyl)-7-((4-hydroxyphenyl)amino)-3-methyl-1,3-dihydro-2H-1,4-benzodiazepin-2-one], the “Cytotoxicity LD50” value in the data set on HEK293 cells amounted to 135 ± 26 µM. The Aqueous solubility in data set [1] worked out at 197.9 ± 4.04 µM. In addition, on ARα2B, the affinity corresponds to a Ki of 4.18 µM and the inhibition at 10 µM amounted to 52%.
Consider `COC(=O)c1ccc(Nc2ccc3c(c2)C(c2ccccc2F)=NC(C)C(=O)N3)cc1` (stereo not shown) [Compound 11, 5-(2-Fluorophenyl)-7-(4-methoxycarbonylanilino)-3-methyl-1,3-dihydro-2H-1,4-benzodiazepin-2-one], for which the results for the Ki at ARα2A and on ARα2C were 2250 nM and 1540 nM, respectively. Besides, the “Cytotoxicity LD50” value in the data set with HEK293 cells was found to be 88 ± 17 µM. Moreover, on ARα2B, the inhibition at 10 µM came out at 44%.
Compound `CC1N=C(c2ccccc2F)c2cc(Nc3ccc(C(F)(F)F)cc3)ccc2NC1=O` (stereo not shown) [Compound 12, 5-(2-Fluorophenyl)-7-(4-trifluoromethylanilino)-3-methyl-1,3-dihydro-2H-1,4-benzodiazepin-2-one] returned a Ki on ARα2A of 2590 nM. For the same compound, the “Cytotoxicity LD50” value with HEK293 cells was over 150 µM. Also, the inhibition at 10 µM on ARα2B was 38%.
In the case of `CC1N=C(c2ccccc2F)c2cc(Nc3ccccc3C#N)ccc2NC1=O` (stereo not shown) [Compound 13, 7-(2-Cyanoanilino)-5-(2-fluorophenyl)-3-methyl-1,3-dihydro-2H-1,4-benzodiazepin-2-one], the “Cytotoxicity LD50” value in the data set on HEK293 cells was over 150 µM. Besides, the inhibition at 10 µM on ARα2B came to 29%.
As for `CCc1ccccc1Nc1ccc2c(c1)C(c1ccccc1F)=NC(C)C(=O)N2` (stereo not shown) [Compound 16, 7-(2-Ethylanilino)-5-(2-fluorophenyl)-3-methyl-1,3-dihydro-2H-1,4-benzodiazepin-2-one], in the data set with HEK293 cells, the “Cytotoxicity LD50” value was over 300 µM. Besides, the inhibition at 10 µM at ARα2B is -2%.
As for `Cc1cccc(Nc2ccc3c(c2)C(c2ccccc2F)=NC(C)C(=O)N3)c1` (stereo not shown) [Compound 18, 5-(2-Fluorophenyl)-3-methyl-7-(3-methylanilino)-1,3-dihydro-2H-1,4-benzodiazepin-2-one], the results for the Ki at ARα2A, on ARα2B and on ARα2C were 2080 nM, 1.67 µM and 1180 nM, respectively. Also, the “Cytotoxicity LD50” value in the data set with HEK293 cells is 109 ± 12 µM. Also, the inhibition at 10 µM on ARα2B amounted to 87%.
Consider `CC1N=C(c2ccccc2F)c2cc(Nc3cccc(C#N)c3)ccc2NC1=O` (stereo not shown) [Compound 19, 7-(3-Cyanoanilino)-5-(2-fluorophenyl)-3-methyl-1,3-dihydro-2H-1,4-benzodiazepin-2-one], for which the “Cytotoxicity LD50” value in the data set with HEK293 cells was 165 ± 27 µM. Also, on ARα2B, the Ki was found to be 3.25 µM and the inhibition at 10 µM is 57%.
With `Cc1ccc(Nc2ccc3c(c2)C(c2ccccc2F)=NC(C)C(=O)N3)c(C)c1` (stereo not shown) [Compound 20, 5-(2-Fluorophenyl)-7-(2,4-dimethylanilino)-3-methyl-1,3-dihydro-2H-1,4-benzodiazepin-2-one], the “Cytotoxicity LD50” value in the data set with HEK293 cells amounted to 88 ± 22 µM. Also, at ARα2B, the inhibition at 10 µM was 33%.
In the case of `CC1N=C(c2ccccc2F)c2cc(N(C)c3ccccc3)ccc2NC1=O` (stereo not shown) [Compound 21, 5-(2-Fluorophenyl)-7-(N-methylanilino)-3-methyl-1,3-dihydro-2H-1,4-benzodiazepin-2-one], the “Cytotoxicity LD50” value in the data set on HEK293 cells came out at 158 ± 27 µM. For the same compound, on ARα2B, the inhibition at 10 µM came out at 47%.
For `CC1N=C(c2ccccc2F)c2cc(N3CCOCC3)ccc2NC1=O` (stereo not shown) [Compound 22, 5-(2-Fluorophenyl)-3-methyl-7-(morpholin-4-yl)-1,3-dihydro-2H-1,4-benzodiazepin-2-one], the “Cytotoxicity LD50” value in the data set on HEK293 cells is over 300 µM. In addition, the inhibition at 10 µM at ARα2B was 27%.
As to `CC1N=C(c2ccccc2F)c2cc(N3CCCCC3)ccc2NC1=O` (stereo not shown) [Compound 23, 5-(2-Fluorophenyl)-3-methyl-7-(piperidin-1-yl)-1,3-dihydro-2H-1,4-benzodiazepin-2-one], in the data set with HEK293 cells, the “Cytotoxicity LD50” value is over 300 µM. Further, the inhibition at 10 µM at ARα2B came to 61%.
`CC1N=C(c2ccccc2F)c2cc(NCc3ccccc3)ccc2NC1=O` (stereo not shown) [Compound 24, 7-(Benzylamino)-5-(2-fluorophenyl)-3-methyl-1,3-dihydro-2H-1,4-benzodiazepin-2-one]: in the data set with HEK293 cells, the “Cytotoxicity LD50” value is over 150 µM. The inhibition at 10 µM at ARα2B was determined as 46%.
For `CC1N=C(c2ccccc2F)c2cc(NC3CCCCC3)ccc2NC1=O` (stereo not shown) [Compound 26, 7-(Cyclohexylamino)-5-(2-fluorophenyl)-3-methyl-1,3-dihydro-2H-1,4-benzodiazepin-2-one], in that order: over 300 µM and 64%.
For `CC1N=C(c2ccccc2F)c2cc(N(C)C)ccc2NC1=O` (stereo not shown) [Compound 27, 7-(Dimethylamino)-5-(2-fluorophenyl)-3-methyl-1,3-dihydro-2H-1,4-benzodiazepin-2-one], in that order: over 300 µM and 45%.

Source of the values: PMC12495306 (RSC Medicinal Chemistry, 2025).
